Assay results taken from PMC3241989, “ADP Regulates SNF1, the Saccharomyces cerevisiae Homolog of AMP-Activated Protein Kinase” (Cell Metabolism, 2011).
pEC50, pKd: −log10 of the molar value.

Key:
[1] = target: T1, regulatory fragment of SNF1 (Snf4(1-322)Sip2(304-415)Snf1(457-633)) (Saccharomyces cerevisiae, UniProt P12904); test: X-ray crystallography, crystal soak; format: binding; conditions: site 4 of Snf4
T1 construct: C-terminal domains of Snf1 and Sip2 with full-length Snf4 (1-322; b14 prints 1-332), tricistronic E. coli expression, His-tag removed with PreScission protease; with Carbon catabolite-derepressing protein kinase; SNF1 protein kinase subunit beta-2
T1 sequence (P12904 1-322): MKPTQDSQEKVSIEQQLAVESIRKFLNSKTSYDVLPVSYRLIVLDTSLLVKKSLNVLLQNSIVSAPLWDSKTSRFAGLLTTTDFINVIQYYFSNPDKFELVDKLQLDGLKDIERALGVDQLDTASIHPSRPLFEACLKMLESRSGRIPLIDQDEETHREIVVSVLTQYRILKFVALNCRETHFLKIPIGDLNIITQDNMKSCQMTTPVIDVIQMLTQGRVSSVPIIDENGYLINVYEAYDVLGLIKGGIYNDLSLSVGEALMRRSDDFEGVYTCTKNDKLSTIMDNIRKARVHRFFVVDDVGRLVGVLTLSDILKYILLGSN
T1 sequence (P34164 304-415 partner): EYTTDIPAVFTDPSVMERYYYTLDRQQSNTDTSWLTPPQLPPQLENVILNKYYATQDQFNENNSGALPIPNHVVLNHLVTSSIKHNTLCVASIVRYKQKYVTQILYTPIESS
T1 sequence (P06782 457-633 partner): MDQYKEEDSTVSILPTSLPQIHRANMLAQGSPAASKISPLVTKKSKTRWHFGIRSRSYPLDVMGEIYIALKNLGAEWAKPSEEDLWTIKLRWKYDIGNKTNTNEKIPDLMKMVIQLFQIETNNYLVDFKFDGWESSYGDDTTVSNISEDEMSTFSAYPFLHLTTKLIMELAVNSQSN

[2] = target: T2, SNF1 complex (Snf1(1-633)Gal83(1-417)Snf4(1-322)) (Saccharomyces cerevisiae, UniProt P12904); test: fluorescence competition against NADH; format: binding; conditions: phosphorylated SNF1, 20°C, 50 mM Tris pH 8, 100 mM NaCl, 1 mM TCEP; for Kd: no Mg, tight site, competitive with NADH, error is SD, read-out: Kd (μM) / Versus C-AXPs
T2 construct: full-length heterotrimer, His-tagged, expressed in E. coli, nickel-Sepharose; phosphorylated on Snf1 Thr210 by CaMKKbeta; with Carbon catabolite-derepressing protein kinase; SNF1 protein kinase subunit beta-3
T2 sequence (P12904 1-322): T1 sequence (P12904 1-322)
T2 sequence (P06782 1-633 partner): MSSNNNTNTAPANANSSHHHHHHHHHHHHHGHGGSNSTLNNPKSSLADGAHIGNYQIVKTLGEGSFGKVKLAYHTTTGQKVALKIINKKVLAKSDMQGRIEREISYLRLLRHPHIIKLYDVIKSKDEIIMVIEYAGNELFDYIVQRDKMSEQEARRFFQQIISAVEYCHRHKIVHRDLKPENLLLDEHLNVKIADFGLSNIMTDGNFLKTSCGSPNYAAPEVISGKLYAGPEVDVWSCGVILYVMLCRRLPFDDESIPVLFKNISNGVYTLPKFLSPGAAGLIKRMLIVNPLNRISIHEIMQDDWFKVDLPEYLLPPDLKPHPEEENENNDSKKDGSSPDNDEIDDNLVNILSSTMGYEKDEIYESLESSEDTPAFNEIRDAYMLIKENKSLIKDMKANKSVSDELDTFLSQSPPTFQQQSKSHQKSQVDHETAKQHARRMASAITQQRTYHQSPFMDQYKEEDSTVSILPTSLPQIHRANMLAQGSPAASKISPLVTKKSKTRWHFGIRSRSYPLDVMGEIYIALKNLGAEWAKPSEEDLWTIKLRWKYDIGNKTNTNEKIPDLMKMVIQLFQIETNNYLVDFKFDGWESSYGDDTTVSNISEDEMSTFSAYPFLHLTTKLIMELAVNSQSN
T2 sequence (Q04739 1-417 partner): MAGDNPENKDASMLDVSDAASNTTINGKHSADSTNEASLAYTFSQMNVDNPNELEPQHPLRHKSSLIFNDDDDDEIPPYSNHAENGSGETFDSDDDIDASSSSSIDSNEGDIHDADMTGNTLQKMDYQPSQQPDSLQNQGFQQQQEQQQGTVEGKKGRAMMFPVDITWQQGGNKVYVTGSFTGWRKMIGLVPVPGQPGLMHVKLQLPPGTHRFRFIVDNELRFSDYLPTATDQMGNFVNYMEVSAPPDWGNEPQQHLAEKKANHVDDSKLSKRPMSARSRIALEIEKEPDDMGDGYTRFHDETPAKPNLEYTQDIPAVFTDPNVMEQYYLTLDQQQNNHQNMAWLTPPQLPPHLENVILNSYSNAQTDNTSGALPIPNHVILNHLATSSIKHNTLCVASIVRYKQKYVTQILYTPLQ

[3] = target: T2, SNF1 complex (Snf1(1-633)Gal83(1-417)Snf4(1-322)); test: fluorescence titration of coumarin nucleotide with SNF1; format: binding; conditions: read-out: Kd,I
[4] = target: T2, SNF1 complex (Snf1(1-633)Gal83(1-417)Snf4(1-322)); test: protection of Snf1 phospho-Thr210 against dephosphorylation by PP2C (western blot); format: biochemical; conditions: read-out: half-maximal effect

| Kd [2] | Structure (SMILES) | X-ray crystallography, crystal soak [1] | further results |
| --- | --- | --- | --- |
|  | NC(=O)C1=CN([C@@H]2O[C@H](COP(=O)(O)OP(=O)(O)OC[C@H]3O[C@@H](n4cnc5c(N)ncnc54)[C@H](O)[C@@H]3O)[C@@H](O)[C@H]2O)C=CC1 [NADH] | strong, well-resolved electron density for AMP, ADP, and NADH |  |
| 120 µM | Nc1ncnc2c1ncn2[C@@H]1O[C@H](COP(=O)(O)OP(=O)(O)OP(=O)(O)O)[C@@H](O)[C@H]1O [ATP] |  |  |
|  | Nc1ncnc2c1ncn2[C@@H]1O[C@H](COP(=O)(O)O)[C@@H](O)[C@H]1O [AMP] | strong, well-resolved electron density for AMP, ADP, and NADH |  |
|  | CCN(CC)c1ccc2cc(C(=O)N[C@H]3[C@@H](O)[C@H](n4cnc5c(N)ncnc54)O[C@@H]3COP(=O)(O)OP(=O)(O)O)c(=O)oc2c1 [C-ADP, 3′-(7-diethylaminocoumarin-3-carbonylamino)-3′-deoxyadenosine 5′ diphosphate] |  | pKd [3]: 5.05 |
|  | NC(=O)c1ccc[n+]([C@@H]2O[C@H](COP(=O)(O)OP(=O)(O)OC[C@H]3O[C@@H](n4cnc5c(N)ncnc54)[C@H](O)[C@@H]3O)[C@@H](O)[C@H]2O)c1 [NAD^+] |  | pKd ([2]; read-out: Kd): < 3.60 |
| 72 µM | Nc1ncnc2c1ncn2[C@@H]1O[C@H](COP(=O)(O)OP(=O)(O)O)[C@@H](O)[C@H]1O [ADP] | strong, well-resolved electron density for AMP, ADP, and NADH | pEC50 [4]: ~3.30 |
